System: DMS-114 complex spheroids with HUVEC/MSC, growth % test/control
Assay: Anticancer human tumor DMS-114 cell line growth inhibition [AhR];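 also: spheroids exposed to agents for 7 days before readout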;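 as to viability, T/C: 100% = DMSO vehicle control wells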
Conditions: for IC50: curve of first compound; for viability, T/C: stronger effect = lower value
Source text: Multicellular complex tumor spheroid response to aryl hydrocarbon receptor antagonists in combination with a variety of drugs and investigational agents in selected tumor cell lines
The current study was undertaken to assess response to aryl hydrocarbon receptor antagonists in combination with standard-of-care drugs and investigational agents in solid tumor complex spheroid models. Complex spheroids include a stromal component modeled by human endothelial cells (HUVEC) and fibroblasts modeled by human mesenchymal stem cells (MSCs). The concentration ranges selected for each drug and investigational agent were based upon clinically achievable concentrations if the clinical Cmax of the agent was known.
Compounds. The drugs and investigational agents: BAY 2416964 (NSC825713), GNF351 (NSC835774), CH-223191 (NSC835775), CPI-455 (NSC825282), aza-TdCyd (NSC777586), decitabine (NSC127716), belinostat (NSC758774), entinostat (NSC756642), pevonedistat (NSC761192), tazemetostat (NSC777109), talazoparib (NSC765396), olaparib (NSC753686), selinexor (NSC780203), nedisertib (M3814, NSC802822), bortezomib (NSC756655), venetoclax (NSC766270), doxorubicin (NSC123127), elimusertib (BAY189344, NSC800525), ceralasertib (AZD6738, NSC777638), TAK-243 (NSC785004), alisertib (NSC759677), etoposide (NSC141540), topotecan (NSC609699), eribulin (NSC707389), gemcitabine (NSC613327), carboplatin (NSC241240), cisplatin (NSC119875), and SN-38 (NSC673596) were obtained from the National Cancer Institute (NCI) Developmental Therapeutics Program Chemical Repository (32). The FDA-approved anticancer drug set is available from the Developmental Therapeutics Program at https://dtp.cancer.gov/organization/dscb/obtaining/available plates.htm. […] The stock solutions were prepared in dimethyl sulfoxide (DMSO, Sigma-Aldrich, St. Louis, MO, cat. D2650), except for the platinum compounds which were prepared in saline (Quality Biological, Gaithersburg, MD, cat. 114-055-101), at 800-fold the tested concentration and stored at -70 degrees C prior to their use. All drugs and investigational agents were tested over a range starting from a high concentration at or near the clinical Cmax and decreasing in half-log increments. If the clinical Cmax for an agent had not been determined, the highest concentration tested was 10 microM (Table 1).
Cell Culture. All cells were maintained in an incubator at 37 degrees C and 5% CO2 with 95% humidity. The PDC lines were cultured according to standard operating procedures established by the NCI PDMR (https://pdmr.cancer.gov). Briefly, all PDCs were thawed and cultured in Matrigel-coated flasks prepared with a working solution of 1X Ham's F-12 nutrient mix, without supplementation (Invitrogen, Waltham, MA, cat. 11765054), 100 U/mL penicillin-streptomycin (Invitrogen, cat. 15140122), and 2.5% Matrigel (Corning Inc., Corning, NY, cat. 354248) for the first three passages. All PDCs were cultured in complete DMEM/F-12 media containing advanced DMEM/F-12 (Invitrogen, cat. 12634028), 4.9% defined fetal bovine serum, heat inactivated (HyClone Laboratories Inc., Logan, UT, cat. SH30070.03HI), 389 ng/mL hydrocortisone (Sigma-Aldrich, cat. H4001), 9.7 ng/mL human EGF recombinant protein (Invitrogen, cat. PHG0313), 23.4 microg/mL adenine (Sigma-Aldrich, cat. A2786), 97.3 U/mL penicillin-streptomycin (Invitrogen, cat. 15140122), 1.9 mM L-glutamine (Invitrogen, cat. 25030081), and 9.7 microM Y-27632 dihydrochloride (Tocris Bioscience, Bristol, United Kingdom, cat. 1254). The PDCs were cultured in complete DMEM/F12 media without 10 microM Y-27632 dihydrochloride for at least two passages prior to the screen. The established cell lines NCI-H1341 and […] were cultured in DMEM/F-12, HEPES (Invitrogen, cat. 11330032), 5% defined fetal bovine serum (HyClone Laboratories Inc., cat. SH30070.03), ITS premix universal culture supplement [insulin (5 microg/mL), transferrin (5 microg/mL), and selenious acid (5 ng/mL)] […]

Structure (SMILES): O=C(C=Cc1cccc(S(=O)(=O)Nc2ccccc2)c1)NO + CC(CO)NC(=O)c1cc(-c2ccc(Cl)cc2)nn(-c2cnn(C)c2)c1=O
- IC50 (second compound 0.1 µM): 406 nM
- IC50 (second compound 0.316 µM): 381 nM
- IC50 (second compound 1 µM): 459 nM
- IC50 (second compound 3.16 µM): 543 nM
- IC50 (second compound 10 µM): 482 nM
- viability, T/C (second compound 0.1 µM, first compound 0.0316 µM): 75.9%
- viability, T/C (second compound 0.1 µM, first compound 0.1 µM): 77.6%
- viability, T/C (second compound 0.1 µM, first compound 0.316 µM): 55.1%
- viability, T/C (second compound 0.1 µM, first compound 1 µM): 27.2%
- viability, T/C (second compound 0.1 µM, first compound 3.16 µM): 13.3%
- viability, T/C (second compound 0.1 µM, first compound 10 µM): 11.9%
- viability, T/C (second compound 0.316 µM, first compound 0.0316 µM): 77.6%
- viability, T/C (second compound 0.316 µM, first compound 0.1 µM): 78.3%
- viability, T/C (second compound 0.316 µM, first compound 0.316 µM): 53.2%
- viability, T/C (second compound 0.316 µM, first compound 1 µM): 26.2%
- viability, T/C (second compound 0.316 µM, first compound 3.16 µM): 11.3%
- viability, T/C (second compound 0.316 µM, first compound 10 µM): 12.4%
- viability, T/C (second compound 1 µM, first compound 0.0316 µM): 84.6%
- viability, T/C (second compound 1 µM, first compound 0.1 µM): 81.2%
- viability, T/C (second compound 1 µM, first compound 0.316 µM): 61.1%
- viability, T/C (second compound 1 µM, first compound 1 µM): 26.9%
- viability, T/C (second compound 1 µM, first compound 3.16 µM): 11.1%
- viability, T/C (second compound 1 µM, first compound 10 µM): 13.5%
- viability, T/C (second compound 3.16 µM, first compound 0.0316 µM): 82%
- viability, T/C (second compound 3.16 µM, first compound 0.1 µM): 76.9%
- viability, T/C (second compound 3.16 µM, first compound 0.316 µM): 68.1%
- viability, T/C (second compound 3.16 µM, first compound 1 µM): 29.9%
- viability, T/C (second compound 3.16 µM, first compound 3.16 µM): 12.4%
- viability, T/C (second compound 3.16 µM, first compound 10 µM): 12.3%
- viability, T/C (second compound 10 µM, first compound 0.0316 µM): 90.6%
- viability, T/C (second compound 10 µM, first compound 0.1 µM): 68.2%
- viability, T/C (second compound 10 µM, first compound 0.316 µM): 64.6%
- viability, T/C (second compound 10 µM, first compound 1 µM): 35%
- viability, T/C (second compound 10 µM, first compound 3.16 µM): 13.8%
- viability, T/C (second compound 10 µM, first compound 10 µM): 14.5%

Structure (SMILES): CCN(c1cc(-c2ccc(CN3CCOCC3)cc2)cc(C(=O)NCc2c(C)cc(C)[nH]c2=O)c1C)C1CCOCC1 + Cc1cncc(-c2nc(NCCc3c[nH]c4ccccc34)c3ncn(C(C)C)c3n2)c1
- IC50 (second compound 0.1 µM): > 3000 nM
- IC50 (second compound 0.316 µM): > 3000 nM
- IC50 (second compound 1 µM): > 3000 nM
- IC50 (second compound 3.16 µM): > 3000 nM
- IC50 (second compound 10 µM): 361 nM
- viability, T/C (second compound 0.1 µM, first compound 0.00949 µM): 92.9%
- viability, T/C (second compound 0.1 µM, first compound 0.03 µM): 97.4%
- viability, T/C (second compound 0.1 µM, first compound 0.0949 µM): 92.9%
- viability, T/C (second compound 0.1 µM, first compound 0.3 µM): 92.6%
- viability, T/C (second compound 0.1 µM, first compound 0.949 µM): 82.7%
- viability, T/C (second compound 0.1 µM, first compound 3 µM): 70.8%
- viability, T/C (second compound 0.316 µM, first compound 0.00949 µM): 94.9%
- viability, T/C (second compound 0.316 µM, first compound 0.03 µM): 89.3%
- viability, T/C (second compound 0.316 µM, first compound 0.0949 µM): 109%
- viability, T/C (second compound 0.316 µM, first compound 0.3 µM): 90.5%
- viability, T/C (second compound 0.316 µM, first compound 0.949 µM): 78.9%
- viability, T/C (second compound 0.316 µM, first compound 3 µM): 59%
- viability, T/C (second compound 1 µM, first compound 0.00949 µM): 99.1%
- viability, T/C (second compound 1 µM, first compound 0.03 µM): 101%
- viability, T/C (second compound 1 µM, first compound 0.0949 µM): 95.9%
- viability, T/C (second compound 1 µM, first compound 0.3 µM): 91.2%
- viability, T/C (second compound 1 µM, first compound 0.949 µM): 76.6%
- viability, T/C (second compound 1 µM, first compound 3 µM): 68.8%
- viability, T/C (second compound 3.16 µM, first compound 0.00949 µM): 99.3%
- viability, T/C (second compound 3.16 µM, first compound 0.03 µM): 97.8%
- viability, T/C (second compound 3.16 µM, first compound 0.0949 µM): 90%
- viability, T/C (second compound 3.16 µM, first compound 0.3 µM): 92%
- viability, T/C (second compound 3.16 µM, first compound 0.949 µM): 74.8%
- viability, T/C (second compound 3.16 µM, first compound 3 µM): 63.5%
- viability, T/C (second compound 10 µM, first compound 0.00949 µM): 58.2%
- viability, T/C (second compound 10 µM, first compound 0.03 µM): 55.2%
- viability, T/C (second compound 10 µM, first compound 0.0949 µM): 54.3%
- viability, T/C (second compound 10 µM, first compound 0.3 µM): 50.9%
- viability, T/C (second compound 10 µM, first compound 0.949 µM): 45.7%
- viability, T/C (second compound 10 µM, first compound 3 µM): 46.4%

From PubChem BioAssay AID1919008 (Molecular Pharmacology Branch, DTP, NCI, 2023)
